Where two headings read alike, the source gives them in different places.
What was measured:
[1] = mouse, in vivo; for Plasma level of non-ester compound / AUC: po, 100 mg/kg
Description: The compounds of Examples 2, 4, 6, 7 and 8 and the 1-(ethoxycarbonyloxy)ethyl ester of compound [II] (briefly, compound A) are each administered orally to a mouse in a dose of 100 mg/kg in terms of non-ester compound, i.e., compound [II]. At 0.25, 0.5, 1.0 and 2.0 hours after administration, the concentration of the non-ester compound in the mouse plasma is determined by the cup assay using Proteus mirabilis Eb313 as the test organism and the area under the concentration-time curve for 0-2 hours (AUC) is calculated.
As control, the non-ester compound is administered subcutaneously to a mouse and the AUC value is similarly calculated.

[2] = tested on: gram-positive bacteria such as Staphylococcus aureus; details: cited from earlier work
bacteria = details: cited from earlier work
[3] = tested on: gram-negative bacteria such as Escherichia coli, Klebsiella pneumoniae, Proteus vulgaris, Proteus mirabilis and Proteus morganii; details: cited from earlier work

Structure (SMILES) | Bioavailability ([1]; 120 min) | Plasma level of non-ester compound ([1]; 15 min) | Plasma level of non-ester compound ([1]; 30 min) | Plasma level of non-ester compound ([1]; 60 min) | AUC ([1]; 120 min) | Plasma level of non-ester compound ([1]; 120 min) | antibacterial activity [2] | Bioavailability ([1]; sc, 120 min) | antibacterial activity (bacteria) | antibacterial activity [3]
CC(OC(=O)OCC(C)(C)C)OC(=O)C1=C(CSc2nnnn2CCN(C)C)CS[C@@H]2[C@H](NC(=O)Cc3csc(N)n3)C(=O)N12 (stereo partly drawn) [Example 7, 1-(2,2-Dimethylpropoxycarbonyloxy)ethyl 7β-[2-(2-aminothiazol-4-yl)acetamido]-3-[[[1-(2-dimethylaminoethyl)-1H-tetrazol-5-yl]thio]methyl]ceph-3-em-4-carboxylate] | 92.0% | 65700 ng/mL | 34500 ng/mL | 7230 ng/mL | 35700 ng·h/mL | 1860 ng/mL | – | – | – | –
CCC(CC)COC(=O)OC(C)OC(=O)C1=C(CSc2nnnn2CCN(C)C)CS[C@@H]2[C@H](NC(=O)Cc3csc(N)n3)C(=O)N12 (stereo partly drawn) [Example 4, 1-(2-Ethylbutoxycarbonyloxy)ethyl 7β-[2-(2-aminothiazol-4-yl)acetamido]-3-[[[1-(2-dimethylaminoethyl)-1H-tetrazol-5-yl]thio]methyl]ceph-3-em-4-carboxylate] | 83.6% | 43900 ng/mL | 39500 ng/mL | 8730 ng/mL | 32400 ng·h/mL | 220 ng/mL | – | – | – | –
CCOC(=O)OC(C)OC(=O)C1=C(CSc2nnnn2CCN(C)C)CS[C@@H]2[C@H](NC(=O)Cc3csc(N)n3)C(=O)N12 (stereo partly shown) [Compound A, 1-(ethoxycarbonyloxy)ethyl ester of compound [II], reference compound] | 23.9% | 14700 ng/mL | 9200 ng/mL | 2400 ng/mL | 9280 ng·h/mL | 700 ng/mL | – | – | – | –
CCCC(C)COC(=O)OC(C)OC(=O)C1=C(CSc2nnnn2CCN(C)C)CS[C@@H]2[C@H](NC(=O)Cc3csc(N)n3)C(=O)N12 (stereo partly drawn) [Example 6, 1-(2-Methylpentyloxycarbonyloxy)ethyl 7β-[2-(2-aminothiazol-4-yl)acetamido]-3-[[[1-(2-dimethylaminoethyl)-1H-tetrazol-5-yl]thio]methyl]ceph-3-em-4-carboxylate] | 80.1% | 50200 ng/mL | 31000 ng/mL | 7310 ng/mL | 31100 ng·h/mL | 2860 ng/mL | – | – | – | –
CC(C)CCOC(=O)OC(C)OC(=O)C1=C(CSc2nnnn2CCN(C)C)CS[C@@H]2[C@H](NC(=O)Cc3csc(N)n3)C(=O)N12 (stereo partly drawn) [Example 2, 1-(3-Methylbutoxycarbonyloxy)ethyl 7β-[2-(2-aminothiazol-4-yl)acetamido]-3-[[[1-(2-dimethylaminoethyl)-1H-tetrazol-5-yl]thio]methyl]ceph-3-em-4-carboxylate] | 90.8% | 65800 ng/mL | 28600 ng/mL | 9660 ng/mL | 35300 ng·h/mL | 1680 ng/mL | – | – | – | –
CN(C)CCn1nnnc1SCC1=C(C(=O)O)N2C(=O)[C@@H](NC(=O)Cc3csc(N)n3)[C@H]2SC1 [compound [II], 7β-[2-(2-aminothiazol-4-yl)acetamido]-3-[[[1-(2-dimethylaminoethyl]-1H-tetrazol-5-yl]thio]methyl]ceph-3-em-4-carboxylic acid] | – | – | – | – | – | – | potent antibacterial activity | 100% | strong antibacterial activity | potent antibacterial activity
CCCC(C)OC(=O)OC(C)OC(=O)C1=C(CSc2nnnn2CCN(C)C)CS[C@@H]2[C@H](NC(=O)Cc3csc(N)n3)C(=O)N12 (stereo partly drawn) [Example 8, 1-(1-Methylbutoxycarbonyloxy)ethyl 7β-[2-(2-aminothiazol-4-yl)acetamido]-3-[[[1-(2-dimethylaminoethyl)-1H-tetrazol-5-yl]thio]methyl]ceph-3-em-4-carboxylate] | 110.6% | 62700 ng/mL | 48900 ng/mL | 11200 ng/mL | 42500 ng·h/mL | 860 ng/mL | – | – | – | –
